Test results published in patent US20140200136A1, “Agricultural mixtures comprising arylquinazolinone compounds” (BASF SE, priority 2011, published 2014).
Where two headings read alike, the source gives them in different places.

Assays:
Type in all cases: cell-based
[1] = tested on: Pyricularia oryzae; conditions: single active
[2] = tested on: Septoria tritici; experiment: Activity against leaf blotch on wheat caused by Septoria tritici (Septtr), microtiter plate test; conditions: single active
[3] = tested on: Leptosphaeria nodorum; experiment: Activity against wheat leaf spots caused by Leptosphaeria nodorum (Leptno), microtiter plate test; conditions: single active, 7 days after inoculation

## O=C(Nc1ccccc1-c1ccc(Cl)cc1)c1cccnc1Cl [Boscalid]
[1]; 16 ppm
  Observed efficacy: 8

## Cc1cc(F)c(-n2cnc3ccc(F)cc3c2=O)cc1[S+]([O-])CC(F)(F)F (stereo not drawn) [CE.I.31, 6-Fluoro-3-[2-fluoro-4-methyl-5-2(2,2,2-trifluoroethanesulfinyl)-phenyl]-3H-quinazolin-4-one]
[2]; 63 ppm
  Observed efficacy: 19
[3]; concentration 63 ppm
  Observed efficacy: 19
[1]; 1 ppm
  Observed efficacy: 8
[1]; 4 ppm
  Observed efficacy: 11
[1]; 63 ppm
  Observed efficacy: 16

## COC(=O)Nc1nc2ccccc2[nH]1 [Carbendazim]
[1]; 0.25 ppm
  Observed efficacy: 19

## N#Cc1c(Cl)c(Cl)c(Cl)c(C#N)c1Cl [Chlorothalonil]
[1]; 0.25 ppm
  Observed efficacy: 30

## Cc1ccc(-c2c(Cl)nc(C#N)n2S(=O)(=O)N(C)C)cc1 [Cyazofamid]
[1]; 1 ppm
  Observed efficacy: 10

## CO/N=C(/C1=NOCCO1)c1ccccc1Oc1ncnc(Oc2ccccc2Cl)c1F [Fluoxastrobin]
[2]; 0.25 ppm
  Observed efficacy: 58

## Cn1cc(C(=O)Nc2ccccc2-c2cc(F)c(F)c(F)c2)c(C(F)F)n1 [Fluxapyroxad]
[2]; 0.063 ppm
  Observed efficacy: 58

## CO/C=C(/C(=O)OC)c1ccccc1COc1cccc(C(F)(F)F)n1 [Picoxystrobin]
[1]; 0.016 ppm
  Observed efficacy: 19

## COC(=O)N(OC)c1ccccc1COc1ccn(-c2ccc(Cl)cc2)n1 [Pyraclostrobin]
[1]; 0.004 ppm
  Observed efficacy: 32

## CON=C(C(=O)OC)c1ccccc1CON=C(C)c1cccc(C(F)(F)F)c1 [Trifloxystrobin]
[1]; 0.016 ppm
  Observed efficacy: 26

## zinc propylenebis(dithiocarbamate) polymer [Propineb, reference compound]
[3]; concentration 4 ppm
  Observed efficacy: 57
